In the test the target is T1, PRKCZ (PKC zeta) (Homo sapiens, UniProt Q05513).
T1 construct: purchased Thermo Fisher Scientific (Life Technologies) SelectScreen
Put plainly: SelectScreen Z'LYTE. Format: biochemical. The essentials:
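SelectScreen broad panel; activity (Z'LYTE, Adapta) plus binding formats. ATP: Km app for CSF1R Z'LYTE; 10 for CAMK1 Adapta. Readout = % per kinase.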

SMILES strings stand for the structures.

T1 sequence (Q05513 whole entry): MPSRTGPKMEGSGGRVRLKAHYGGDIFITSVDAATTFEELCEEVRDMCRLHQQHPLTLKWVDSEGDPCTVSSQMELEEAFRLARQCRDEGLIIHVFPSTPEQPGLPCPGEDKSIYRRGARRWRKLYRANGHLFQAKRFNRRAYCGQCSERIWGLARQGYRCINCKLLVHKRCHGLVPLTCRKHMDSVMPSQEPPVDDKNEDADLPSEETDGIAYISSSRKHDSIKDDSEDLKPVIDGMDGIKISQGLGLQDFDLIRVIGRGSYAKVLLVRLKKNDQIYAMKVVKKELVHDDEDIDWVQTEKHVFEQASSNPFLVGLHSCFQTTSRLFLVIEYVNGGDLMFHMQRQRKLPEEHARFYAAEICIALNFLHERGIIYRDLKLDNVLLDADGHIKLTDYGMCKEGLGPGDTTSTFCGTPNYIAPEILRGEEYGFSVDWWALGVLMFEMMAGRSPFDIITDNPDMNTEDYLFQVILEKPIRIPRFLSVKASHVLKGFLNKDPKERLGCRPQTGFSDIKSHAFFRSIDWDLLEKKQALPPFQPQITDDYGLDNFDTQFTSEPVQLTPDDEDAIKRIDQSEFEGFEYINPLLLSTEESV

In general, inhibition refers to the drop in the measured response relative to a control, in per cent. Low values mean little suppression, high ones strong suppression. In turn, `CN(C(=O)CN1CCOCC1)c1ccc2sc3c(-c4cccc5c(=O)cc(N6CC7CCC(C6)O7)oc45)cccc3c2c1` [NU5455] registered an inhibition at 1 µM of 4.7%.
